Laboratory results taken from US8518980B2, “Treatment of Duchenne muscular dystrophy” (Summit Corporation PLC, priority 2006, dated 2013).

Test system: Utrophin A promoter linked to a luciferase reporter gene (H2K/mdx/Utro A reporter cell line)
Test: Luciferase reporter assay (murine H2K cells)
Settings: Mus musculus, H2K mdx

SMILES | activity at 10 µM
Cc1ccc2nc(-c3ccc(NC(=O)c4cccs4)cc3)oc2c1 [Example 672, N-(4-(6-methylbenzo[d]oxazol-2-yl)phenyl)thiophene-2-carboxamide] | 201 to 300%
Nc1c(C(=O)Nc2ccccc2F)sc2nc3c(cc12)CCC3 [Example 673, 3-amino-N-(2-fluorophenyl)-6,7-dihydro-5H-cyclopenta[e]thieno[2,3-b]pyridine-2-carboxamide] | 201 to 300%
OCc1cn(-c2ccccc2)nc1-c1cc2ccccc2o1 [Example 674, (3-(benzofuran-2-yl)-1-phenyl-1H-pyrazol-4-yl)methanol] | 201 to 300%
COc1ccc(-c2nc3cc(C)ccc3o2)cc1 [Example 675, 2-(4-methoxyphenyl)-5-methylbenzo[d]oxazole] | 201 to 300%
CCOc1ccc(NCc2nc3ccccc3n2C)cc1 [Example 676, 4-ethoxy-N-((1-methyl-1H-benzo[d]imidazol-2-yl)methyl)aniline] | 201 to 300%
Cc1ccc2oc(-c3ccc(Cl)c(NC(=O)c4ccco4)c3)nc2c1 [Example 677, N-(2-chloro-5-(5-methylbenzo[d]oxazol-2-yl)phenyl)furan-2-carboxamide] | 201 to 300%
Cc1nc(Nc2nc3ccccc3o2)nc2c1CCC2 [Example 678, N-(4-methyl-6,7-dihydro-5H-cyclopenta[d]pyrimidin-2-yl)benzo[d]oxazol-2-amine] | 201 to 300%
O=C(Nc1nc2ccccc2[nH]1)c1cccc(Cl)c1 [Example 679, N-(1H-benzo[d]imidazol-2-yl)-3-chlorobenzamide] | 201 to 300%
O=C(Nc1ccc(-c2nc3ccccc3s2)cc1)C1CCCO1 (stereo not drawn) [Example 680, N-(4-(benzo[d]thiazol-2-yl)phenyl)tetrahydrofuran-2-carboxamide] | 201 to 300%
CC(=O)c1c(C)nc(Nc2nc3ccccc3o2)nc1C [Example 681, 1-(2-(benzo[d]oxazol-2-ylamino)-4,6-dimethylpyrimidin-5-yl)ethanone] | 201 to 300%
Cc1ccnc(Nc2nc3ccccc3o2)n1 [Example 682, N-(4-methylpyrimidin-2-yl)benzo[d]oxazol-2-amine] | 201 to 300%
CN(C)S(=O)(=O)c1ccc2nc(NC(=O)c3cccs3)sc2c1 [Example 683, N-(6-(N,N-dimethylsulfamoyl)benzo[d]thiazol-2-yl)thiophene-2-carboxamide] | 201 to 300%
Cc1ccc2oc(-c3cc(NC(=O)c4cncc(Br)c4)ccc3O)nc2c1 [Example 684, 5-bromo-N-(4-hydroxy-3-(5-methylbenzo[d]oxazol-2-yl)phenyl)nicotinamide] | 201 to 300%
O=C(CSc1nc[nH]n1)Nc1ccc(-c2nc3ccccc3s2)cc1 [Example 685, 2-(1H-1,2,4-triazol-3-ylthio)-N-(4-(benzo[d]thiazol-2-yl)phenyl)acetamide] | 201 to 300%
COc1ccc2oc(-c3ccc(C)c(N)c3)nc2c1 [Example 686, 5-(5-methoxybenzo[d]oxazol-2-yl)-2-methylaniline] | 201 to 300%
CNS(=O)(=O)c1ccc2nc(NC(=O)c3cccs3)sc2c1 [Example 687, N-(6-(N-methylsulfamoyl)benzo[d]thiazol-2-yl)thiophene-2-carboxamide] | 201 to 300%
Cc1ccc2sc(-c3ccc(NC(=O)c4cc(-n5cnnc5)ccc4Cl)cc3)nc2c1 [Example 688, 2-chloro-N-(4-(5-methylbenzo[d]thiazol-2-yl)phenyl)-5-(4H-1,2,4-triazol-4-yl)benzamide] | 201 to 300%
O=C(Nc1ccccc1F)C(=O)c1c[nH]c2ccccc12 [Example 689, N-(2-fluorophenyl)-2-(1H-indol-3-yl)-2-oxoacetamide] | 201 to 300%
